How the values were obtained:
8-OHdG = test: Measurement of 8-OHdG in blood in mice (Test Example 4); type: in vivo, ICR strain mice; conditions: 300 mg/kg body weight orally once daily for 14 days, ELISA, vs control administration group (olive oil)
Source text: Adonixanthin was used as an asymmetric carotenoid, and astaxanthin was used as a symmetric carotenoid. As experimental animals, ICR strain mice were used. Thirty (30) mice were used, and 10 mice each were assigned to the adonixanthin-administration group, the astaxanthin-administration group, and the control administration group. […]
After end of administration for 14 days, blood was collected from the postcava of the mice under isoflurane absorption anesthesia. […] Thereafter, 8-OHdG of the collected serum was measured using 8-hydroxy 2 deoxyguanosine ELISA Kit (ab201734) (manufactured by Abcam plc.) as an ELISA kit for measurement of 8-OHdG.
Each of the concentration of 8-OHdG in serum collected from the adonixanthin-administration group, and the concentration of 8-OHdG in serum collected from the astaxanthin-administration group, and the concentration of 8-OHdG in serum collected from the control administration group is shown in FIG. 4. The concentration was expressed as mean±standard error. […]

[1] = Proportion of trans carotenoid in serum and each organ of mice (Test Example 2); type: in vivo, ICR strain mice; conditions: mice of Test Example 1, 50 mg/kg orally once daily for 10 days
Procedure: In HPLC, the concentration of adonixanthin was measured as a concentration of each of the cis isomer and the trans isomer. In HPLC, the concentration of astaxanthin was measured as a concentration of each of the cis isomer and the trans isomer. Regarding each of adonixanthin and astaxanthin in serum and each organ of mice of Test Example 1, the proportion of the trans isomer was confirmed.

Compound | Concentration of 8-OHdG in serum, FIG. 4 (8-OHdG) | Proportion of the trans isomer in each organ versus the cis isomer, FIG. 2 [1]
CC1=C(/C=C/C(C)=C/C=C/C(C)=C/C=C/C=C(C)/C=C/C=C(C)/C=C/C2=C(C)C(=O)C(O)CC2(C)C)C(C)(C)CC(O)C1 (stereo not drawn) [adonixanthin, 3,3′-dihydroxy-β,β-caroten-4-one] | significantly lower than that in the control administration group | especially higher than the proportion of the cis isomer
CC1=C(/C=C/C(C)=C/C=C/C(C)=C/C=C/C=C(C)/C=C/C=C(C)/C=C/C2=C(C)C(=O)C(O)CC2(C)C)C(C)(C)CC(O)C1=O (stereo not drawn) [astaxanthin, 3,3′-dihydroxy-β,β-carotene-4,4′-dione] | low | higher than the proportion of the cis isomer

Reference: patent US20220054432A1, “COMPOSITION FOR INCREASING RETENTION OF CAROTENOID IN BLOOD” (ENEOS Corporation, priority 2018, published 2022)
